This data set is described as follows: Dissociation constant, pKa of the compound. In kind it is physicochemical.

On to `NC[C@H](COCc1cccc2ccccc12)OC(=O)NCCCCCCO`, for which the pKa came out at 8.9.

Broadly, the pKa is the pH at which an ionisable group is half protonated. Lower therefore signals a stronger acid or weaker base.

(Values after ChEMBL document CHEMBL1143887, “Novel amino linkers enabling efficient labeling and convenient purification of amino-modified oligonucleotides” (Bioorg Med Chem, 2008).)
